Experimental data published in US10058550B2, “Methods of treating heart failure” (priority 2015, dated 2018).

target: human APJ receptor (Homo sapiens (Human), UniProt P35414); test: biochemical; assay type: biochemical; conditions: read-out: Activity hAPJ SPA EC50 IP
Outline: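 Membranes from CHO cells stably expressing cloned human APJ were incubated with WGA SPA beads in 20 mM HEPES pH 7.5, 5 mM MgCl2, 0.1% BSA, 200 mM NaCl and 3 μM GDP. Reaction started with 0.2 nM [35S]GTPγS ± ligands, 90 min at RT. EC50 obtained by non-linear regression as mean of independent experiments.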

Sequence of human APJ receptor (P35414 whole entry): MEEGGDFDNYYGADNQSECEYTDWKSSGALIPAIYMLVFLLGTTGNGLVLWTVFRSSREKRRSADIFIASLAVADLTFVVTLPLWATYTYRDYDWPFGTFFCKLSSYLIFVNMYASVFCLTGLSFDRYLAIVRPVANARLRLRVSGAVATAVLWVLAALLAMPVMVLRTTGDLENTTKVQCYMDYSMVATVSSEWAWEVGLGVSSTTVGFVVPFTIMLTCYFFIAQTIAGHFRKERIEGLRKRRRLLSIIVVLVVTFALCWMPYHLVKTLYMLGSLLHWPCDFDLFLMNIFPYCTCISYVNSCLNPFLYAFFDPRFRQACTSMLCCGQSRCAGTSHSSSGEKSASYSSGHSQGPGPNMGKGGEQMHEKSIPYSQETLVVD

**Q.** How did the EC50 turn out when `CCO[C@H](c1ncc(F)cn1)[C@H](C)S(=O)(=O)Nc1nnc(-c2cccnc2)n1-c1c(OC)cccc1OC` [Example 51.0, (1R,2S)-N-(4-(2,6-dimethoxyphenyl)-5-(3-pyridinyl)-4H-1,2,4-triazol-3-yl)-1-ethoxy-1-(5-fluoro-2-pyrimidinyl)-2-propanesulfonamide] was run?
**A.** Its EC50 is 0.71 nM.

**Q.** `COc1cccc(-c2nnc(NS(=O)(=O)[C@@H](C)[C@H](OC)c3ncc(C)cn3)n2-c2ccc3ccccc3c2)n1` [Example 53.0, (1R,2S)-1-methoxy-N-(5-(6-methoxy-2-pyridinyl)-4-(2-naphthalenyl)-4H-1,2,4-triazol-3-yl)-1-(5-methyl-2-pyrimidinyl)-2-propanesulfonamide] was tested. Which EC50 did it give?
**A.** The EC50 was 53 nM.

**Q.** Which EC50 does the source give for `COC(=O)c1cccc(-n2c(NS(=O)(=O)[C@@H](C)[C@H](OC)c3ncc(C)cn3)nnc2-c2cccc(OC)n2)c1` [Example 54.0, methyl 3-(3-((((1S,2R)-2-methoxy-1-methyl-2-(5-methyl-2-pyrimidinyl)ethyl)sulfonyl)amino)-5-(6-methoxy-2-pyridinyl)-4H-1,2,4-triazol-4-yl)benzoate] here?
**A.** The EC50 was 12 nM.

**Q.** `COc1cccc(-c2nnc(NS(=O)(=O)[C@@H](C)[C@H](OC)c3ncc(C)cn3)n2-c2cccc(C#N)c2)n1` [Example 56.0, (1R,2S)-N-(4-(3-cyanophenyl)-5-(6-methoxy-2-pyridinyl)-4H-1,2,4-triazol-3-yl)-1-methoxy-1-(5-methyl-2-pyrimidinyl)-2-propanesulfonamide] was tested. Which EC50 did it give?
**A.** Its EC50 is 31 nM.

**Q.** With `COc1cnc([C@@H](OC)[C@H](C)S(=O)(=O)Nc2nnc(-c3cncc(C)c3)n2-c2c(OC)cccc2OC)nc1` [Example 57.0, (1R,2S)-N-(4-(2,6-dimethoxyphenyl)-5-(5-methyl-3-pyridinyl)-4H-1,2,4-triazol-3-yl)-1-methoxy-1-(5-methoxy-2-pyrimidinyl)-2-propanesulfonamide] as the molecule, how does the EC50 read?
**A.** Its EC50 is 0.55 nM.

**Q.** Which EC50 does the source give for `COc1cnc([C@@H](OC)[C@H](C)S(=O)(=O)Nc2nnc(-c3cccnc3)n2-c2c(OC)cccc2OC)nc1` [Example 58.0, (1R,2S)-N-(4-(2,6-dimethoxyphenyl)-5-(3-pyridinyl)-4H-1,2,4-triazol-3-yl)-1-methoxy-1-(5-methoxy-2-pyrimidinyl)-2-propanesulfonamide] here?
**A.** Its EC50 is 0.5 nM.

**Q.** For `COc1cnc([C@@H](OC)[C@H](C)S(=O)(=O)Nc2nnc(-c3cncc(C)c3)n2-c2ccccc2)nc1` [Example 59.0, (1R,2S)-1-methoxy-1-(5-methoxy-2-pyrimidinyl)-N-(5-(5-methyl-3-pyridinyl)-4-phenyl-4H-1,2,4-triazol-3-yl)-2-propanesulfonamide], which EC50 is on record?
**A.** Its EC50 is 26 nM.

**Q.** Which EC50 does the source give for `COc1cccc(-c2nnc(NS(=O)(=O)[C@@H](C)[C@H](OC)c3ncc(C)cn3)n2-c2cccc(Br)c2)n1` [Example 60.0, (1R,2S)-N-(4-(3-bromophenyl)-5-(6-methoxy-2-pyridinyl)-4H-1,2,4-triazol-3-yl)-1-methoxy-1-(5-methyl-2-pyrimidinyl)-2-propanesulfonamide] here?
**A.** Its EC50 is 12 nM.

**Q.** With `COc1cccc(-c2nnc(NS(=O)(=O)[C@@H](C)[C@H](OC)c3ncc(C)cn3)n2-c2cccc(C)c2)n1` [Example 62.0, (1R,2S)-1-methoxy-N-(5-(6-methoxy-2-pyridinyl)-4-(3-methylphenyl)-4H-1,2,4-triazol-3-yl)-1-(5-methyl-2-pyrimidinyl)-2-propanesulfonamide] as the molecule, how does the EC50 read?
**A.** Its EC50 is 6 nM.

**Q.** With `COc1cccc(-c2nnc(NS(=O)(=O)[C@@H](C)[C@H](OC)c3ncc(C)cn3)n2-c2ccc(F)c(C(F)(F)F)c2)n1` [Example 63.0, (1R,2S)-N-(4-(4-fluoro-3-(trifluoromethyl)phenyl)-5-(6-methoxy-2-pyridinyl)-4H-1,2,4-triazol-3-yl)-1-methoxy-1-(5-methyl-2-pyrimidinyl)-2-propanesulfonamide] as the molecule, how does the EC50 read?
**A.** Its EC50 is 350 nM.

**Q.** `COc1cccc(-n2c(NS(=O)(=O)[C@@H](C)[C@H](OC)c3ncc(C)cn3)nnc2-c2cccc(OC)n2)c1` [Example 64.0, (1R,2S)-1-methoxy-N-(4-(3-methoxyphenyl)-5-(6-methoxy-2-pyridinyl)-4H-1,2,4-triazol-3-yl)-1-(5-methyl-2-pyrimidinyl)-2-propanesulfonamide] was tested. Which EC50 did it give?
**A.** Its EC50 is 10 nM.

**Q.** `COc1cccc(-c2nnc(NS(=O)(=O)[C@@H](C)[C@H](OC)c3ncc(C)cn3)n2-c2ccc(F)cc2)n1` [Example 65.0, (1R,2S)-N-(4-(4-fluorophenyl)-5-(6-methoxy-2-pyridinyl)-4H-1,2,4-triazol-3-yl)-1-methoxy-1-(5-methyl-2-pyrimidinyl)-2-propanesulfonamide] was tested. Which EC50 did it give?
**A.** The EC50 was 180 nM.

**Q.** How did the EC50 turn out when `COc1cccc(-c2nnc(NS(=O)(=O)[C@@H](C)[C@H](OC)c3ncc(C)cn3)n2-c2cccc(Cl)c2)n1` [Example 66.0, (1R,2S)-N-(4-(3-chlorophenyl)-5-(6-methoxy-2-pyridinyl)-4H-1,2,4-triazol-3-yl)-1-methoxy-1-(5-methyl-2-pyrimidinyl)-2-propanesulfonamide] was run?
**A.** The EC50 was 24 nM.

**Q.** How did the EC50 turn out when `COc1cccc(-c2nnc(NS(=O)(=O)[C@@H](C)[C@H](OC)c3ncc(C)cn3)n2-c2cc(Cl)cc(Cl)c2)n1` [Example 68.0, (1R,2S)-N-(4-(3,5-dichlorophenyl)-5-(6-methoxy-2-pyridinyl)-4H-1,2,4-triazol-3-yl)-1-methoxy-1-(5-methyl-2-pyrimidinyl)-2-propanesulfonamide] was run?
**A.** The EC50 was 60 nM.

**Q.** For `COc1cccc(-c2nnc(NS(=O)(=O)[C@@H](C)[C@H](OC)c3ncc(C)cn3)n2-c2ccc(F)c(F)c2)n1` [Example 71.0, (1R,2S)-N-(4-(3,4-difluorophenyl)-5-(6-methoxy-2-pyridinyl)-4H-1,2,4-triazol-3-yl)-1-methoxy-1-(5-methyl-2-pyrimidinyl)-2-propanesulfonamide], which EC50 is on record?
**A.** Its EC50 is 210 nM.

**Q.** Which EC50 does the source give for `COc1cccc(-c2nnc(NS(=O)(=O)[C@@H](C)[C@H](OC)c3ncc(C)cn3)n2-c2cccc(C(C)=O)c2)n1` [Example 72.0, (1R,2S)-N-(4-(3-acetylphenyl)-5-(6-methoxy-2-pyridinyl)-4H-1,2,4-triazol-3-yl)-1-methoxy-1-(5-methyl-2-pyrimidinyl)-2-propanesulfonamide] here?
**A.** Its EC50 is 9.1 nM.

**Q.** Which EC50 does the source give for `COc1cccc(-c2nnc(NS(=O)(=O)[C@@H](C)[C@H](OC)c3ncc(C)cn3)n2-c2c(Cl)cccc2Cl)n1` [Example 73.0, (1R,2S)-N-(4-(2,6-dichlorophenyl)-5-(6-methoxy-2-pyridinyl)-4H-1,2,4-triazol-3-yl)-1-methoxy-1-(5-methyl-2-pyrimidinyl)-2-propanesulfonamide] here?
**A.** Its EC50 is 0.76 nM.

**Q.** Which EC50 does the source give for `COc1cccc(-c2nnc(NS(=O)(=O)[C@@H](C)[C@H](OC)c3ncc(C)cn3)n2-c2cccc(C(F)(F)F)c2)n1` [Example 75.0, (1R,2S)-1-methoxy-N-(5-(6-methoxy-2-pyridinyl)-4-(3-(trifluoromethyl)phenyl)-4H-1,2,4-triazol-3-yl)-1-(5-methyl-2-pyrimidinyl)-2-propanesulfonamide] here?
**A.** The EC50 was 12 nM.

**Q.** How did the EC50 turn out when `COc1cccc(-c2nnc(NS(=O)(=O)[C@@H](C)[C@H](OC)c3ncc(C)cn3)n2-c2ccc(N(C)C)cc2)n1` [Example 77.0, (1R,2S)-N-(4-(4-(dimethylamino)phenyl)-5-(6-methoxy-2-pyridinyl)-4H-1,2,4-triazol-3-yl)-1-methoxy-1-(5-methyl-2-pyrimidinyl)-2-propanesulfonamide] was run?
**A.** The EC50 was 7 nM.

**Q.** `COc1cccc(-c2nnc(NS(=O)(=O)[C@@H](C)[C@H](C)c3ncc(F)cn3)n2-c2ccccc2)n1` [Example 78.0, (2S,3R)-3-(5-fluoro-2-pyrimidinyl)-N-(5-(6-methoxy-2-pyridinyl)-4-phenyl-4H-1,2,4-triazol-3-yl)-2-butanesulfonamide] was tested. Which EC50 did it give?
**A.** Its EC50 is 9.4 nM.

**Q.** With `CCO[C@H](c1ncc(F)cn1)[C@H](C)S(=O)(=O)Nc1nnc(-c2cncc(C)c2)n1-c1c(OC)cccc1OC` [Example 79.0, (1R,2S)-N-(4-(2,6-dimethoxyphenyl)-5-(5-methyl-3-pyridinyl)-4H-1,2,4-triazol-3-yl)-1-ethoxy-1-(5-fluoro-2-pyrimidinyl)-2-propanesulfonamide] as the molecule, how does the EC50 read?
**A.** The EC50 was 0.41 nM.

**Q.** Which EC50 does the source give for `COc1cccc(OC)c1-n1c(NS(=O)(=O)[C@@H](C)[C@H](O)c2ncc(F)cn2)nnc1-c1cccnc1` [Example 82.0, (1R,2S)-N-(4-(2,6-dimethoxyphenyl)-5-(3-pyridinyl)-4H-1,2,4-triazol-3-yl)-1-(5-fluoro-2-pyrimidinyl)-1-hydroxy-2-propanesulfonamide] here?
**A.** Its EC50 is 2.8 nM.

**Q.** `COc1cc(-c2nnc(NS(=O)(=O)[C@@H](C)[C@H](C)c3ncc(C)cn3)n2-c2c(OC)cccc2OC)ccn1` [Example 84.0, (2S,3R)-N-(4-(2,6-dimethoxyphenyl)-5-(2-methoxypyridin-4-yl)-4H-1,2,4-triazol-3-yl)-3-(5-methylpyrimidin-2-yl)butane-2-sulfonamide] was tested. Which EC50 did it give?
**A.** The EC50 was 5.2 nM.

**Q.** With `COc1cccc(OC)c1-n1c(NS(=O)(=O)[C@@H](C)[C@H](C)c2ncc(C)cn2)nnc1-c1ccnc(C)c1` [Example 85.0, (2S,3R)-N-(4-(2,6-dimethoxyphenyl)-5-(2-methylpyridin-4-yl)-4H-1,2,4-triazol-3-yl)-3-(5-methylpyrimidin-2-yl)butane-2-sulfonamide] as the molecule, how does the EC50 read?
**A.** Its EC50 is 5.2 nM.

**Q.** With `COc1cncc(-c2nnc(NS(=O)(=O)[C@@H](C)[C@H](C)c3ncc(C)cn3)n2-c2c(OC)cccc2OC)c1` [Example 86.0, (2S,3R)-N-(4-(2,6-dimethoxyphenyl)-5-(5-methoxypyridin-3-yl)-4H-1,2,4-triazol-3-yl)-3-(5-methylpyrimidin-2-yl)butane-2-sulfonamide] as the molecule, how does the EC50 read?
**A.** Its EC50 is 1.3 nM.

**Q.** For `COc1cccc(OC)c1-n1c(NS(=O)(=O)[C@@H](C)[C@H](C)c2ncc(C)cn2)nnc1-c1cccc(C)n1` [Example 87.0, (2S,3R)-N-(4-(2,6-dimethoxyphenyl)-5-(6-methylpyridin-2-yl)-4H-1,2,4-triazol-3-yl)-3-(5-methylpyrimidin-2-yl)butane-2-sulfonamide], which EC50 is on record?
**A.** The EC50 was 0.4 nM.

**Q.** Which EC50 does the source give for `COc1cccc(OC)c1-n1c(NS(=O)(=O)[C@@H](C)[C@H](OC)c2ncc(Cl)cn2)nnc1-c1cccc(C)n1` [Example 88.0, (1R,2S)-1-(5-chloropyrimidin-2-yl)-N-(4-(2,6-dimethoxyphenyl)-5-(6-methylpyridin-2-yl)-4H-1,2,4-triazol-3-yl)-1-methoxypropane-2-sulfonamide] here?
**A.** The EC50 was 0.37 nM.
